Test results taken from US7118895B2, “Process for producing aglycon by using diglycosidase and flavor-improved food containing the aglycon and converting agent to be used in the process” (Amano Enzyme Inc., priority 2000, dated 2006).

Test system: Crude diglycosidase
Assay: Examination of pH in the conversion into isoflavone aglycons by diglycosidase using soybean materials
Type: biochemical, Penicillium multicolor IAM7153
Parameters: Decomposition efficiency of genistin family in soymilk / Decomposition efficiency of genistin family in defatted soybean / Decomposition efficiency of daidzin family in defatted soybean: concentration or dose not given beside the values
Settings: for Decomposition efficiency of daidzin family in roasted soy flour: 55° C.
Description: A substrate solution of 450 μL was prepared by suspending 50 mg of each soybean material (roasted soy flour (manufactured by Fuji Shokuryo K.K.), soymilk (manufactured by Gitoh Shokuhin K.K.), defatted soybean (manufactured by Fuji Seiyu K.K.), concentrated soybean protein (manufactured by Fuji Seiyu K.K.)), and adjusting the pH to 2 to 11 with hydrochloric acid or sodium hydroxide. Each enzyme solution of pH 2–11 wherein diglycosidase activity of crude diglycosidase was adjusted to 1.88 AU/mL was added thereto in an amount of 50 μL and the whole was reacted at 55° C. at the total volume of 500 μL. To the reaction mixture was added 700 μL of ethanol after 0, 1, 3, and 6 hours of the reaction. After stirring and ultrasonication, the mixture was subjected to centrifugal separation at 15,000 rpm and 4° C. for 10 minutes. The supernatant was filtered through a filter and the existence of isoflavone glycosides and aglycon isoflavones contained in the reaction mixture was detected by HLPC (Tables 15 to 26).

[1] = pH6.6, heat treatment of enzyme: no, reaction time 0 h
[2] = pH6.6, heat treatment of enzyme: no, reaction time 1 h
[3] = pH6.6, heat treatment of enzyme: no, reaction time 3 h
[4] = pH6.6, heat treatment of enzyme: no, reaction time 6 h
[5] = pH6.6, heat treatment of enzyme: yes, reaction time 6 h

CC(=O)OC[C@H]1O[C@@H](Oc2ccc3c(=O)c(-c4ccc(O)cc4)coc3c2)[C@H](O)[C@@H](O)[C@@H]1O [acetyldaidzin, 6″-O-acetyldaidzin]
Decomposition efficiency of daidzin family in roasted soy flour (pH5, heat treatment of enzyme no, reaction time 0 h): 47.7 | Decomposition efficiency of daidzin family in roasted soy flour (pH5, heat treatment of enzyme no, reaction time 1 h): 38.5 | Decomposition efficiency of daidzin family in roasted soy flour (pH5, heat treatment of enzyme no, reaction time 3 h): 24.7 | Decomposition efficiency of daidzin family in roasted soy flour (pH5, heat treatment of enzyme no, reaction time 6 h): 15.2 | Decomposition efficiency of daidzin family in roasted soy flour (pH5, heat treatment of enzyme yes, reaction time 6 h): 45.0 | Decomposition efficiency of daidzin family in concentrated soybean protein (pH5.1, heat treatment of enzyme: no, reaction time 0 h): 44.6% | Decomposition efficiency of daidzin family in concentrated soybean protein (pH5.1, heat treatment of enzyme: no, reaction time 1 h): 43.4% | Decomposition efficiency of daidzin family in concentrated soybean protein (pH5.1, heat treatment of enzyme: no, reaction time 3 h): 37.0% | Decomposition efficiency of daidzin family in concentrated soybean protein (pH5.1, heat treatment of enzyme: no, reaction time 6 h): 31.2% | Decomposition efficiency of daidzin family in concentrated soybean protein (pH5.1, heat treatment of enzyme: yes, reaction time 6 h): 43.4% | Decomposition efficiency of daidzin family in defatted soybean (pH5.4, heat treatment of enzyme: no, reaction time 0 h): not detected | Decomposition efficiency of daidzin family in defatted soybean (pH5.4, heat treatment of enzyme: no, reaction time 1 h): not detected | Decomposition efficiency of daidzin family in defatted soybean (pH5.4, heat treatment of enzyme: no, reaction time 3 h): not detected | Decomposition efficiency of daidzin family in defatted soybean (pH5.4, heat treatment of enzyme: no, reaction time 6 h): not detected | Decomposition efficiency of daidzin family in defatted soybean (pH5.4, heat treatment of enzyme: yes, reaction time 6 h): not detected | Decomposition efficiency of daidzin family in soymilk (pH6.2, heat treatment of enzyme: no, reaction time 0 h): not detected | Decomposition efficiency of daidzin family in soymilk (pH6.2, heat treatment of enzyme: no, reaction time 1 h): not detected | Decomposition efficiency of daidzin family in soymilk (pH6.2, heat treatment of enzyme: no, reaction time 3 h): not detected | Decomposition efficiency of daidzin family in soymilk (pH6.2, heat treatment of enzyme: no, reaction time 6 h): not detected | Decomposition efficiency of daidzin family in soymilk (pH6.2, heat treatment of enzyme: yes, reaction time 6 h): not detected | Decomposition efficiency of daidzin family in roasted soy flour (pH6.5, heat treatment of enzyme no, reaction time 0 h): 48.2 | Decomposition efficiency of daidzin family in roasted soy flour (pH6.5, heat treatment of enzyme no, reaction time 1 h): 45.4 | Decomposition efficiency of daidzin family in roasted soy flour (pH6.5, heat treatment of enzyme no, reaction time 3 h): 39.2 | Decomposition efficiency of daidzin family in roasted soy flour (pH6.5, heat treatment of enzyme no, reaction time 6 h): 34.4 | Decomposition efficiency of daidzin family in roasted soy flour (pH6.5, heat treatment of enzyme yes, reaction time 6 h): 43.4 | Decomposition efficiency of daidzin family in concentrated soybean protein [1]: 44.8% | Decomposition efficiency of daidzin family in defatted soybean [1]: not detected | Decomposition efficiency of daidzin family in concentrated soybean protein [2]: 43.9% | Decomposition efficiency of daidzin family in defatted soybean [2]: not detected | Decomposition efficiency of daidzin family in concentrated soybean protein [3]: 42.9% | Decomposition efficiency of daidzin family in defatted soybean [3]: not detected | Decomposition efficiency of daidzin family in concentrated soybean protein [4]: 41.2% | Decomposition efficiency of daidzin family in defatted soybean [4]: not detected | Decomposition efficiency of daidzin family in concentrated soybean protein [5]: 41.8% | Decomposition efficiency of daidzin family in defatted soybean [5]: not detected | Decomposition efficiency of daidzin family in soymilk (pH7.2, heat treatment of enzyme: no, reaction time 0 h): not detected | Decomposition efficiency of daidzin family in soymilk (pH7.2, heat treatment of enzyme: no, reaction time 1 h): not detected | Decomposition efficiency of daidzin family in soymilk (pH7.2, heat treatment of enzyme: no, reaction time 3 h): not detected | Decomposition efficiency of daidzin family in soymilk (pH7.2, heat treatment of enzyme: no, reaction time 6 h): not detected | Decomposition efficiency of daidzin family in soymilk (pH7.2, heat treatment of enzyme: yes, reaction time 6 h): not detected | Decomposition efficiency of daidzin family in defatted soybean (pH7.8, heat treatment of enzyme: no, reaction time 0 h): not detected | Decomposition efficiency of daidzin family in defatted soybean (pH7.8, heat treatment of enzyme: no, reaction time 1 h): not detected | Decomposition efficiency of daidzin family in defatted soybean (pH7.8, heat treatment of enzyme: no, reaction time 3 h): not detected | Decomposition efficiency of daidzin family in defatted soybean (pH7.8, heat treatment of enzyme: no, reaction time 6 h): not detected | Decomposition efficiency of daidzin family in defatted soybean (pH7.8, heat treatment of enzyme: yes, reaction time 6 h): not detected | Decomposition efficiency of daidzin family in roasted soy flour (pH8.5, heat treatment of enzyme no, reaction time 0 h): 42.1 | Decomposition efficiency of daidzin family in roasted soy flour (pH8.5, heat treatment of enzyme no, reaction time 1 h): 42.7 | Decomposition efficiency of daidzin family in roasted soy flour (pH8.5, heat treatment of enzyme no, reaction time 3 h): 40.3 | Decomposition efficiency of daidzin family in roasted soy flour (pH8.5, heat treatment of enzyme no, reaction time 6 h): 38.0 | Decomposition efficiency of daidzin family in roasted soy flour (pH8.5, heat treatment of enzyme yes, reaction time 6 h): 37.3 | Decomposition efficiency of daidzin family in concentrated soybean protein (pH8.6, heat treatment of enzyme: no, reaction time 0 h): 40.7% | Decomposition efficiency of daidzin family in concentrated soybean protein (pH8.6, heat treatment of enzyme: no, reaction time 1 h): 39.2% | Decomposition efficiency of daidzin family in concentrated soybean protein (pH8.6, heat treatment of enzyme: no, reaction time 3 h): 39.0% | Decomposition efficiency of daidzin family in concentrated soybean protein (pH8.6, heat treatment of enzyme: no, reaction time 6 h): 38.1% | Decomposition efficiency of daidzin family in concentrated soybean protein (pH8.6, heat treatment of enzyme: yes, reaction time 6 h): 37.7% | Decomposition efficiency of daidzin family in soymilk (pH11.6, heat treatment of enzyme: no, reaction time 0 h): not detected | Decomposition efficiency of daidzin family in soymilk (pH11.6, heat treatment of enzyme: no, reaction time 1 h): not detected | Decomposition efficiency of daidzin family in soymilk (pH11.6, heat treatment of enzyme: no, reaction time 3 h): not detected | Decomposition efficiency of daidzin family in soymilk (pH11.6, heat treatment of enzyme: no, reaction time 6 h): not detected | Decomposition efficiency of daidzin family in soymilk (pH11.6, heat treatment of enzyme: yes, reaction time 6 h): not detected
